Test [1] concerns the target T1, Stimulator of interferon genes protein (Homo sapiens, UniProt Q86WV6). Put plainly: Agonist activity at STING G230A/R293Q mutant (unknown origin) expressed in digitonin -permeabilized HEK293T cells preincubated for 30 mins followed by washout and measured after 5 hrs by Bright-glo luciferase assay.
Test [2] addresses T1, Stimulator of interferon genes protein. Put plainly: Agonist activity at STING R71H/G230A/R293Q mutant (unknown origin) expressed in digitonin -permeabilized HEK293T cells preincubated for 30 mins followed by washout and measured after 5 hrs by Bright-glo luciferase assay.

For one compound, EC50 results are on record in BindingDB's records for PubMed 37567057 (Institute of Organic Chemistry and Biochemistry of the …).

T1 sequence (Q86WV6 whole entry): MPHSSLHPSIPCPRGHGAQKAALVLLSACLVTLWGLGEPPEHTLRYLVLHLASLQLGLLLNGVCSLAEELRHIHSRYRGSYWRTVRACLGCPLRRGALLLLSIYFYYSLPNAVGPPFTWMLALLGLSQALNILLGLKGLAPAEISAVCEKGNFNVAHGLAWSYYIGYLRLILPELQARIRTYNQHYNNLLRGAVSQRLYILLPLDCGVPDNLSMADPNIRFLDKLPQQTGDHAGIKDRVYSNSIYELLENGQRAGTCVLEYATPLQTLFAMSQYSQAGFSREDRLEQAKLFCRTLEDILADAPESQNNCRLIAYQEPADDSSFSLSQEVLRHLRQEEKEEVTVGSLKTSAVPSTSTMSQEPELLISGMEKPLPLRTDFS

In the case of `Nc1ncnc2c1ncn2[C@@H]1O[C@@H]2C=CP(=O)(O)O[C@H]3[C@@H](F)[C@H](n4cnc5c(N)ncnc54)O[C@@H]3COP(=O)(O)O[C@H]2[C@H]1F`, the EC50 in test [1] and in test [2] was 100 nM in each case.

As usually defined, the EC50 is the concentration that produces a half-maximal response.
